Tests used:
Format in all cases: biochemical
[1] = biological target: T1, Pd32 (with PdPP2C55) (Phoenix dactylifera, UniProt A0A8B7C461); assay: phosphopeptide phosphatase inhibition assay; conditions: read-out: % inhibition of PdPP2C55 at 10 μM ABA
T1 sequence (A0A8B7C461 1-202): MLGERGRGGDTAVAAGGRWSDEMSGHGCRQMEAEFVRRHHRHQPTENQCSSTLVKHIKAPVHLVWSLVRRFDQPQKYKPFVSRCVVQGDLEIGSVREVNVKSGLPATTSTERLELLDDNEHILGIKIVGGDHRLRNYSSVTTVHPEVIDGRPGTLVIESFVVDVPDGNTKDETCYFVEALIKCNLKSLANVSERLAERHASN

[2] = biological target: T2, Pd32 (with PdPP2C79) (Phoenix dactylifera, UniProt A0A8B7C461); assay: phosphopeptide phosphatase inhibition assay; conditions: read-out: % inhibition of PdPP2C79 at 10 μM ABA
T2 sequence (A0A8B7C461 1-202): T1 sequence (A0A8B7C461 1-202)

[3] = biological target: T3, Pd27 (with ΔNHAB1) (Phoenix dactylifera, UniProt A0A8B7BJV2); assay: pNPP phosphatase inhibition assay
T3 sequence (A0A8B7BJV2 1-205): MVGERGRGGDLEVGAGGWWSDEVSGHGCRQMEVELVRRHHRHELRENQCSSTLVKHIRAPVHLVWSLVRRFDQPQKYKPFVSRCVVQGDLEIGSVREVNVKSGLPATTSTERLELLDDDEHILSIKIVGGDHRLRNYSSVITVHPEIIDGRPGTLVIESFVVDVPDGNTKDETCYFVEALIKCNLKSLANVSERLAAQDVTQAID
T3 sequence (Q9CAJ0 179-511 partner limits assumed): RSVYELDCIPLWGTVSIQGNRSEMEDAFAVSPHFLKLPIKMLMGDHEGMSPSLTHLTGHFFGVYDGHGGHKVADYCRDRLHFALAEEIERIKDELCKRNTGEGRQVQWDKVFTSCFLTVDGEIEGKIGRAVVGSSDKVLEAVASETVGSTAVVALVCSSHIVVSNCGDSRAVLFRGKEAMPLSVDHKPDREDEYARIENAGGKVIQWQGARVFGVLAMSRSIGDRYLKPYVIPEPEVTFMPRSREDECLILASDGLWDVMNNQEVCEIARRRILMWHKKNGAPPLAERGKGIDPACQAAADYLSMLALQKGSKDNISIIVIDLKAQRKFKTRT

[4] = biological target: T4, Pd957 (with ΔNHAB1) (Phoenix dactylifera, UniProt A0A8B7BRF0); assay: pNPP phosphatase inhibition assay; conditions: read-out: % inhibition of HAB1 at 10 μM
T4 sequence (A0A8B7BRF0 1-215): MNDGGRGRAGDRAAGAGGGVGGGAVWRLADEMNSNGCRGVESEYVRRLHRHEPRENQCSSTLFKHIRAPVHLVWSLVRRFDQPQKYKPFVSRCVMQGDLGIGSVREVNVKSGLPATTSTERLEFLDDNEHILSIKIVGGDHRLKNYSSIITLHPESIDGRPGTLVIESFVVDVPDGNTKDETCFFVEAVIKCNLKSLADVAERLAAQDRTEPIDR
T4 sequence (Q9CAJ0 179-511 partner limits assumed): T3 sequence (Q9CAJ0 179-511 partner limits assumed)

CC1=CC(=O)CC(C)(C)[C@@]1(O)/C=C/C(C)=C\C(=O)O [ABA]
inhibition at 10 µM [1]: 80%
inhibition at 10 µM [2]: 30%

CCCN1C(=O)CCc2cc(NS(=O)(=O)Cc3c(F)c(F)c(C)c(F)c3F)ccc21 [AMF4]
% inhibition of HAB1 at 10 μM ([3]; 10 μM agonist, 1 μM ΔNHAB1, 2 μM receptor, 15 mM pNPP, receptor agonist): 80%

CCCN1C(=O)CCc2cc(NS(=O)(=O)Cc3ccc(C)cc3)ccc21 [quinabactin]
inhibition at 10 µM ([3]; read-out: % inhibition of HAB1 at 10 μM): 80%
inhibition at 10 µM [4]: 20 to 30%

From doi:10.1101/2020.09.29.318170v1 (biorxiv, 2020)
